# Results as given in article PMC10515631, “Mapping the Initial Stages of a Protective Pathway that Enhances Catalytic Turnover by a Lytic Polysaccharide Monooxygenase” (Journal of the American Chemical Society, 2023).
# How the values were obtained:
# Test in all cases: stopped-flow UV-vis
# Assay type in all cases: biochemical
# Conditions in all cases: oxidant reacting with Cu(I) enzyme, no polysaccharide substrate; 100 uM enzyme, 500 uM oxidant
# CvAA9 = biological target: T1, CvAA9 (Achaetomiella virescens, UniProt A0A223GEC9)
# T1 construct: gene AA9A; mature secreted AA9 LPMO, Cu(I) form; host and construct only in supplement
# TaAA9 = biological target: T2, TaAA9 (Thermoascus aurantiacus, UniProt G3XAP7)
# T2 construct: gene LPMO9A; mature secreted AA9 LPMO, Cu(I) form; host and construct only in supplement
# LsAA9 = biological target: T3, LsAA9 (Panus similis, UniProt A0A0S2GKZ1)
# T3 construct: gene LPMO9A; mature secreted AA9 LPMO, Cu(I) form; expressed in Escherichia coli (fungal host also compared); details in supplement
# T3 sequence (A0A0S2GKZ1 20-254): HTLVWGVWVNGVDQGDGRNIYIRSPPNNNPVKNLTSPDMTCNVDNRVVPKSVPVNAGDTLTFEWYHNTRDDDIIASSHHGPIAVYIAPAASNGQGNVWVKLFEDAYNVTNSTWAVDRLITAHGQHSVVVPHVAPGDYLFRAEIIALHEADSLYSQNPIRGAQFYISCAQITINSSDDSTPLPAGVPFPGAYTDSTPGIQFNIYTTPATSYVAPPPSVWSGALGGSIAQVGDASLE
# T2 sequence (G3XAP7 whole entry): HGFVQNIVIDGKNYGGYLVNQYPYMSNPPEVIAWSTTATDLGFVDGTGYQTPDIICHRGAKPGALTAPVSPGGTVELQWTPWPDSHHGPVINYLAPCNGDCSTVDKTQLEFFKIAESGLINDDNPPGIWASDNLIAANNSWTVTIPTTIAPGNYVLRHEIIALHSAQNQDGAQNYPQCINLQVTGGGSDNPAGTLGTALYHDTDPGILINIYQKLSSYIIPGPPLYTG
# T1 sequence (A0A223GEC9 23-274): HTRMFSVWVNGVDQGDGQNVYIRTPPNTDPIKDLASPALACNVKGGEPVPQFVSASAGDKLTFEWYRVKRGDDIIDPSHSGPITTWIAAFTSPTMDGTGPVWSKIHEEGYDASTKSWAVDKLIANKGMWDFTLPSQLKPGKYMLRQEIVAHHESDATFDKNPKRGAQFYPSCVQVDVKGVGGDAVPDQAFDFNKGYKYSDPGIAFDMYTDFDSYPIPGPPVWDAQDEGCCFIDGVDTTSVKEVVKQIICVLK
structure (smiles),measurement,setting,value
"O=C(OO)c1cccc(Cl)c1 [m-CPBA, meta-chloro-perbenzoic acid]",stopped-flow UV-vis,CvAA9,"transient intermediates generated upon oxidation of CuI–TaAA9, CvAA9, and LsAA9 with mCPBA"
same,stopped-flow UV-vis,TaAA9,"transient intermediates generated upon oxidation of CuI–TaAA9, CvAA9, and LsAA9 with mCPBA"
same,stopped-flow UV-vis,LsAA9,"transient intermediates generated upon oxidation of CuI–TaAA9, CvAA9, and LsAA9 with mCPBA"
